# Reference: patent publication US20090263356A1, “ANTI-ANGIOGENIC COMPOSITION COMPRISING GRAIN-DERIVED COMPONENT AS ACTIVE INGREDIENT” (SANWA SHURUI CO., LTD., priority 2005, published 2009)
# Columns and labels:
# [1] = system: Human vascular endothelial cells and fibroblasts (co-culture); test: Experiment on vascularization inhibition (lumen formation, KURABO kit), Experiments 2 and 5; type: cell-based; conditions: Suramin 50 μM final, VEGF-A 5 ng/ml, 11-day culturing
# Protocol: (§1) 1,000 μg of each specimen was weighed and dissolved in 1 ml of a culture medium. The resulting culture medium was sterilized by filtration (0.22 μm), diluted 10 fold (three times), to prepare samples at concentrations of 10 μg/ml to 1,000 μg/ml.
# Human vascular endothelial cells and fibroblasts were co-cultured at their optimal concentrations. At the proliferation state at an early stage of luminal formation, the individual samples were added for 11-day culturing (the culture media containing the samples were exchanged 4, 7 and 9 days later). […] As standards for the evaluation, VEGF-A promoting luminal formation was added at […], while suramin inhibiting luminal formation was added at 50 μM, in the same manner. A control was prepared without any addition. Regarding the effect on inhibiting vascularization, the formed lumen-like network structure was evaluated.
# Method: A kit manufactured by KURABO was used for measurement. […] VEGF as a vascularization promoting factor and suramin as an agent for suppressing vascularization were concurrently present in a control, so as to compare the lumen formation state in the co-existence of VEGF and each sample.
# Concentration of a sample added: 10, 100 and 1,000 μg/ml (Suramin was added in all of the cases at the same concentration; 50 μM)
# VEGF-A as a vascularization-promoting factor was added at an amount of 5 ng/ml (as the final concentration) Suramin as a positive control with an observed effect on inhibiting vascularization was added at an amount of 50 μM (as the final concentration)
# 1,000 μg of each specimen was weighed and dissolved in 1 ml of a culture medium. The resulting culture medium was sterilized by filtration (0.22 μm) and diluted 10 fold (three times), to prepare samples at concentrations of 10 μg/ml to 1,000 μg/ml.
# Concentration of a sample added: 10, 100 and 1000 μg/ml (Suramin was added in all of the cases at the same concentration; 50 μM)
# [2] = system: Human vascular endothelial cells and fibroblasts (co-culture); test: Experiment on vascularization inhibition (luminal formation), Experiments 1 and 4; type: cell-based; conditions: suramin 25 μM final, VEGF-A 5 ng/ml, 11-day culturing; for AREA (area of vascular tube region): smaller = larger inhibition
# Protocol: as §1, with “μg/ml as shown in Table 1 (the contents of the test samples for use in assessing the effect on inhibiting vascularization).” for “μg/ml.”
# (§2) Human vascular endothelial cells and fibroblasts were co-cultured at their optimal concentrations. At the proliferation state at an early stage of luminal formation, the individual samples (1-1-1, the negative controls, the positive controls) were added for 11-day culturing (the culture media containing the samples were exchanged 4, 7 and 9 days later). […] So as to evaluate the effect on inhibiting vascularization, the formed lumen-like network structure was observed.
# Photographs of the vascular tube tissues were incorporated as digital data, to measure the area of a vascular tube region (black region) at several points randomly selected to determine the effect on inhibiting vascularization.
# VEGF-A as a vascularization-promoting factor was added at an amount of 5 ng/ml (as the final concentration) Suramin as a positive control with an observed effect on inhibiting vascularization was added at an amount of 25 μM (as the final concentration)
# as §1, with “μg/ml as shown in Table 4 (the contents of test samples for assessing vascularization inhibitory effect).” for “μg/ml.”
# as §2, with “Regarding” for “So as to evaluate”, “evaluated.” for “observed.”
# Photographs of blood tube tissues were incorporated as digital data, to measure the area of the blood tube region (black part) at several positions randomly selected, to determine the inhibitory effect of vascularization.
structure (smiles),measurement,setting,value
"Cc1ccc(C(=O)Nc2ccc(S(=O)(=O)O)c3cc(S(=O)(=O)O)cc(S(=O)(=O)O)c23)cc1NC(=O)c1cccc(NC(=O)Nc2cccc(C(=O)Nc3cc(C(=O)Nc4ccc(S(=O)(=O)O)c5cc(S(=O)(=O)O)cc(S(=O)(=O)O)c45)ccc3C)c2)c1 [Suramin, suramin]",AREA,[1],30401
same,JOINT,[1],413
same,LENGTH,[1],6396
same,JOINT,[2]; listed as A3,11
same,LENGTH,[2]; listed as A3,4583
same,PATH,[2]; listed as A3,107
same,JOINT,[2]; listed as A4,16
same,LENGTH,[2]; listed as A4,5311
same,PATH,[2]; listed as A4,128
same,AREA (area of vascular tube region),[2]; listed as A3,27940
same,AREA (area of vascular tube region),[2]; listed as A4,33301
